This note sets out measurements from ChEMBL document CHEMBL1157850, “Synthesis, spectral characterization and bioassay of 3,3'-(1,4-phenylene)-bis[2-alkoxycarbonyl-alkyl)-2-thio-benzoxa-phosphinines]” (Eur J Med Chem, 2010).

≈ marks a conversion by molar mass, not a printed value. Calls of active or inactive are those of the source. The calls are words filed in the database; no cut-off is given here.

The species entered for experiment [1] is Rattus norvegicus. Nature of the experiment: Antioxidant activity in Wistar albino rat assessed as inhibition of lipid peroxidation. The format is functional, organism-based.
The species entered for experiment [2] is Rattus norvegicus. Nature of the experiment: Antioxidant activity in Wistar albino rat assessed as reduced glutathione level. The format is functional.
Experiment [3] is filed under the species Rattus norvegicus. Nature of the experiment: Antioxidant activity in Wistar albino rat assessed as inhibition of superoxide dismutase activity. It counts as functional, organism-based.
The species entered for experiment [4] is Rattus norvegicus. Nature of the experiment: Antioxidant activity in Wistar albino rat assessed as superoxide dismutase level. The format is functional.
Experiment [5] is filed under the species Rattus norvegicus. Kind of experiment: Antioxidant activity in Wistar albino rat assessed as reduced glutathione activity. It counts as functional, organism-based.
Experiment [6] is filed under the species Rattus norvegicus. Nature of the experiment: Antioxidant activity in Wistar albino rat assessed as lipid peroxidation level. It counts as functional, organism-based.
For experiment [7], the species on record is Rattus norvegicus. Nature of the experiment: Antioxidant activity in Wistar albino rat assessed as catalase level. The format is functional.
For experiment [8], the species on record is Rattus norvegicus. Kind of experiment: Antioxidant activity in Wistar albino rat assessed as inhibition of catalase activity. It counts as functional, organism-based.
Setting [9] is: Rattus norvegicus, Wistar albino, read-out: EC50.

In the case of `CCCC(NP1(=S)Oc2ccccc2CN1c1ccc(N2Cc3ccccc3OP2(=S)NC(CCC)C(=O)OC)cc1)C(=O)OC` (centres undefined), the EC50 in the experiment listed under Rattus norvegicus [1] (setting [9]) came out at 2.91 µg/mL (≈ 4.14 µM); in the experiment filed under Rattus norvegicus [3] (setting [9]), 2.31 µg/mL (≈ 3.29 µM); in the experiment listed under Rattus norvegicus [5] (setting [9]), 2.66 µg/mL (≈ 3.78 µM); in the experiment listed under Rattus norvegicus [8] (setting [9]), 3.98 µg/mL (≈ 5.66 µM). Also, the Activity in the experiment listed under Rattus norvegicus [2] was 5.02 µg/mL; in the experiment listed under Rattus norvegicus [4], 27.8 µg/mL; in the experiment filed under Rattus norvegicus [6], 68.2 µg/mL; in the experiment filed under Rattus norvegicus [7], 265.43 µg/mL.

Turning to `CCOC(=O)C(C)NP1(=S)Oc2ccccc2CN1c1ccc(N2Cc3ccccc3OP2(=S)NC(C)C(=O)OCC)cc1` (centres undefined), the EC50 worked out at 3.1 µg/mL (≈ 4.59 µM) in the experiment listed under Rattus norvegicus [1] (setting [9]), 2.98 µg/mL (≈ 4.42 µM) in the experiment filed under Rattus norvegicus [3] (setting [9]), 2.68 µg/mL (≈ 3.97 µM) in the experiment filed under Rattus norvegicus [5] (setting [9]) and 3.38 µg/mL (≈ 5.01 µM) in the experiment filed under Rattus norvegicus [8] (setting [9]). Moreover, the Activity in the experiment listed under Rattus norvegicus [2] was 4.56 µg/mL; in the experiment listed under Rattus norvegicus [4], 28.14 µg/mL; in the experiment listed under Rattus norvegicus [6] it was 68.9 µg/mL; in the experiment listed under Rattus norvegicus [7], 270.32 µg/mL.

With `COC(=O)C(NP1(=S)Oc2ccccc2CN1c1ccc(N2Cc3ccccc3OP2(=S)NC(C(=O)OC)C(C)C)cc1)C(C)C` (centres undefined), the EC50 in the experiment listed under Rattus norvegicus [1] (setting [9]) was 4.1 µg/mL (≈ 5.83 µM); in the experiment filed under Rattus norvegicus [3] (setting [9]), 3.45 µg/mL (≈ 4.91 µM); in the experiment filed under Rattus norvegicus [5] (setting [9]), 3.05 µg/mL (≈ 4.34 µM); in the experiment filed under Rattus norvegicus [8] (setting [9]) it was 4.89 µg/mL (≈ 6.96 µM). Further, the Activity in the experiment listed under Rattus norvegicus [2] was determined as 4.73 µg/mL; in the experiment filed under Rattus norvegicus [4], 27.86 µg/mL; in the experiment listed under Rattus norvegicus [6], 72.3 µg/mL; in the experiment listed under Rattus norvegicus [7], 277.59 µg/mL.

`CCCC(NP1(=S)Oc2ccccc2CN1c1ccc(N2Cc3ccccc3OP2(=S)NC(CCC)C(=O)OCC)cc1)C(=O)OCC` (centres undefined): the EC50 in the experiment listed under Rattus norvegicus [1] (setting [9]) stood at 2.59 µg/mL (≈ 3.54 µM); in the experiment listed under Rattus norvegicus [3] (setting [9]), 2.33 µg/mL (≈ 3.19 µM); in the experiment filed under Rattus norvegicus [5] (setting [9]) it was 2.5 µg/mL (≈ 3.42 µM); in the experiment listed under Rattus norvegicus [8] (setting [9]), 3.23 µg/mL (≈ 4.42 µM). In addition, the Activity in the experiment listed under Rattus norvegicus [2] came to 4.23 µg/mL; in the experiment filed under Rattus norvegicus [4], 28.55 µg/mL; in the experiment filed under Rattus norvegicus [6], 70.2 µg/mL; in the experiment listed under Rattus norvegicus [7], 273.32 µg/mL.

In the case of `CCOC(=O)C1c2ccccc2CN1P1(=S)Oc2ccccc2CN1c1ccc(N2Cc3ccccc3OP2(=S)N2Cc3ccccc3C2C(=O)OCC)cc1` (centres undefined), the EC50 in the experiment listed under Rattus norvegicus [1] (setting [9]) amounted to 1.56 µg/mL (≈ 1.9 µM); in the experiment filed under Rattus norvegicus [3] (setting [9]), 1.55 µg/mL (≈ 1.88 µM); in the experiment filed under Rattus norvegicus [5] (setting [9]), 1.49 µg/mL (≈ 1.81 µM); in the experiment listed under Rattus norvegicus [8] (setting [9]), 1.68 µg/mL (≈ 2.04 µM). For the same compound, the Activity worked out at 5.77 µg/mL in the experiment listed under Rattus norvegicus [2], 30.59 µg/mL in the experiment filed under Rattus norvegicus [4], 75.7 µg/mL in the experiment listed under Rattus norvegicus [6] and 285.58 µg/mL in the experiment filed under Rattus norvegicus [7].

Regarding `COC(=O)C(Cc1c[nH]c2ccccc12)NP1(=S)Oc2ccccc2CN1c1ccc(N2Cc3ccccc3OP2(=S)NC(Cc2c[nH]c3ccccc23)C(=O)OC)cc1` (centres undefined), the EC50 was 1.82 µg/mL (≈ 2.08 µM) in the experiment filed under Rattus norvegicus [1] (setting [9]), 1.39 µg/mL (≈ 1.59 µM) in the experiment listed under Rattus norvegicus [3] (setting [9]), 1.45 µg/mL (≈ 1.65 µM) in the experiment filed under Rattus norvegicus [5] (setting [9]) and 1.98 µg/mL (≈ 2.26 µM) in the experiment listed under Rattus norvegicus [8] (setting [9]). Besides, the Activity in the experiment listed under Rattus norvegicus [2] is 5.84 µg/mL; in the experiment listed under Rattus norvegicus [4], 30.29 µg/mL; in the experiment listed under Rattus norvegicus [6], 76.2 µg/mL; in the experiment filed under Rattus norvegicus [7] it was 280.48 µg/mL.

Turning to `O=C1O[C@H]([C@@H](O)CO)C(O)=C1O` [ASCORBIC ACID], the 50% effective concentration (EC50) in the experiment listed under Rattus norvegicus [1] (setting [9]) was 1.02 µg/mL (≈ 5.79 µM); in the experiment listed under Rattus norvegicus [3] (setting [9]), 0.99 µg/mL (≈ 5.62 µM); in the experiment listed under Rattus norvegicus [5] (setting [9]) it was 0.98 µg/mL (≈ 5.56 µM); in the experiment listed under Rattus norvegicus [8] (setting [9]), 1.37 µg/mL (≈ 7.78 µM). In addition, the figures for the Activity in the experiment filed under Rattus norvegicus [2], in the experiment listed under Rattus norvegicus [6] and in the experiment filed under Rattus norvegicus [7] were 31.34 µg/mL, 88.1 µg/mL and 385.46 µg/mL, respectively. In the experiment listed under Rattus norvegicus [4], the result was inactive.

Take `COC(=O)C(Cc1c[nH]cn1)NP1(=S)Oc2ccccc2CN1c1ccc(N2Cc3ccccc3OP2(=S)NC(Cc2c[nH]cn2)C(=O)OC)cc1` (centres undefined): the EC50 in the experiment listed under Rattus norvegicus [1] (setting [9]) was determined as 1.56 µg/mL (≈ 2 µM); in the experiment filed under Rattus norvegicus [3] (setting [9]), 1.4 µg/mL (≈ 1.8 µM); in the experiment filed under Rattus norvegicus [5] (setting [9]) it was 1.45 µg/mL (≈ 1.86 µM); in the experiment listed under Rattus norvegicus [8] (setting [9]), 1.75 µg/mL (≈ 2.25 µM). Further, the Activity in the experiment filed under Rattus norvegicus [2] was found to be 3.66 µg/mL; in the experiment listed under Rattus norvegicus [4], 31.55 µg/mL; in the experiment filed under Rattus norvegicus [6], 77.2 µg/mL; in the experiment listed under Rattus norvegicus [7], 282.28 µg/mL.

For the compound VITAMIN E [listing 1 of 2 here], the EC50 was 1.22 µg/mL in the experiment filed under Rattus norvegicus [1], 1.03 µg/mL in the experiment listed under Rattus norvegicus [3], 0.99 µg/mL in the experiment listed under Rattus norvegicus [5] and 1.48 µg/mL in the experiment listed under Rattus norvegicus [8].

Regarding `CCOC(=O)C(NP1(=S)Oc2ccccc2CN1c1ccc(N2Cc3ccccc3OP2(=S)NC(C(=O)OCC)c2ccccc2)cc1)c1ccccc1` (centres undefined), the EC50 stood at 2.57 µg/mL (≈ 3.22 µM) in the experiment filed under Rattus norvegicus [1] (setting [9]), 2.42 µg/mL (≈ 3.03 µM) in the experiment filed under Rattus norvegicus [3] (setting [9]), 2.15 µg/mL (≈ 2.69 µM) in the experiment listed under Rattus norvegicus [5] (setting [9]) and 2.98 µg/mL (≈ 3.73 µM) in the experiment listed under Rattus norvegicus [8] (setting [9]). Also, the Activity in the experiment filed under Rattus norvegicus [2] stood at 4.12 µg/mL; in the experiment listed under Rattus norvegicus [4] it was 29.31 µg/mL; in the experiment listed under Rattus norvegicus [6], 70.5 µg/mL; in the experiment filed under Rattus norvegicus [7], 270.32 µg/mL.

On to `Oc1ccccc1CNc1ccc(NCc2ccccc2O)cc1`, for which the EC50 in the experiment filed under Rattus norvegicus [1] (setting [9]) is 5.02 µg/mL (≈ 15.7 µM); in the experiment filed under Rattus norvegicus [3] (setting [9]), 4.58 µg/mL (≈ 14.3 µM); in the experiment filed under Rattus norvegicus [5] (setting [9]) it was 5.42 µg/mL (≈ 16.9 µM); in the experiment listed under Rattus norvegicus [8] (setting [9]), 6.05 µg/mL (≈ 18.9 µM). Moreover, the Activity in the experiment filed under Rattus norvegicus [2] stood at 4.8 µg/mL; in the experiment filed under Rattus norvegicus [4], 26.27 µg/mL; in the experiment filed under Rattus norvegicus [6], 70.7 µg/mL; in the experiment filed under Rattus norvegicus [7], 262.55 µg/mL.

As to `COC(=O)C(Cc1ccccc1)NP1(=S)Oc2ccccc2CN1c1ccc(N2Cc3ccccc3OP2(=S)NC(Cc2ccccc2)C(=O)OC)cc1` (centres undefined), the EC50 is 2.1 µg/mL (≈ 2.63 µM) in the experiment filed under Rattus norvegicus [1] (setting [9]), 1.98 µg/mL (≈ 2.48 µM) in the experiment filed under Rattus norvegicus [3] (setting [9]), 2.05 µg/mL (≈ 2.57 µM) in the experiment filed under Rattus norvegicus [5] (setting [9]) and 2.2 µg/mL (≈ 2.75 µM) in the experiment filed under Rattus norvegicus [8] (setting [9]). The Activity came out at 4.21 µg/mL in the experiment filed under Rattus norvegicus [2], 29.42 µg/mL in the experiment listed under Rattus norvegicus [4], 72.9 µg/mL in the experiment listed under Rattus norvegicus [6] and 279.43 µg/mL in the experiment listed under Rattus norvegicus [7].

For `COC(=O)C(C)NP1(=S)Oc2ccccc2CN1c1ccc(N2Cc3ccccc3OP2(=S)NC(C)C(=O)OC)cc1` (centres undefined), the EC50 in the experiment listed under Rattus norvegicus [1] (setting [9]) came to 4.25 µg/mL (≈ 6.57 µM); in the experiment listed under Rattus norvegicus [3] (setting [9]), 3.56 µg/mL (≈ 5.51 µM); in the experiment filed under Rattus norvegicus [5] (setting [9]), 3.5 µg/mL (≈ 5.41 µM); in the experiment listed under Rattus norvegicus [8] (setting [9]), 5.28 µg/mL (≈ 8.16 µM). For the same compound, the Activity in the experiment listed under Rattus norvegicus [2] was 3.56 µg/mL; in the experiment listed under Rattus norvegicus [4] it was 27.02 µg/mL; in the experiment listed under Rattus norvegicus [6], 72.2 µg/mL; in the experiment listed under Rattus norvegicus [7], 271.27 µg/mL.

In the case of VITAMIN E [listing 2 of 2 here], the Activity in the experiment filed under Rattus norvegicus [2] was found to be 43.6 µg/mL; in the experiment filed under Rattus norvegicus [4], 32.3 µg/mL; in the experiment filed under Rattus norvegicus [6] it was 82.8 µg/mL; in the experiment filed under Rattus norvegicus [7] it was 403 µg/mL.
